Read-outs that look alike come from different tables or passages of the source.
Test system: human monocytic cell line U937
Test: Human U937 cellular necroptosis assay (TNFalpha + z-VAD-FMK, Cell Titer-Glo viability)
Type: cell-based
Conditions: U937 cells, 25 ng/mL human TNFalpha + 25 μM z-VAD-FMK, read-out: hU937 Avg IC50
Procedure: The human monocytic cell line U937 (CRL-1593.2) was purchased from ATCC. The cells were routinely maintained in RPMI-1640 Medium (Gibco, Catalog #11875-093) supplemented with 10% heat inactivated fetal bovine serum (Gibco, Catalog #16140-071), 100 units/mL penicillin and 100 μg/mL streptomycin (Gibco, Catalog #15140-122), in a humidified incubator (37° C., 5% CO2). For the assay, cells were resuspended in RPMI-1640 phenol red free Media (Gibco, Catalog #11835-030) supplemented with 10% fetal bovine serum (Sigma, Catalog #F2442), 100 units/mL penicillin and 100 ug/mL streptomycin. Cells were stimulated with 25 ng/mL human TNFalpha (Cell Sciences, Catalog #CSI15659B) and 25 μM z-VAD-FMK (R&D Systems, Catalog #FMK001) followed by seeding 5000 cells per well in a volume of 40 μL to a white, CulturPlate-384 (Perkin Elmer, Catalog #6007680). Stock solutions of the test compounds were prepared in 100% DMSO (Sigma, Catalog #D2650) and serially diluted 1:3 using 100% DMSO. Compounds were additionally diluted 1:40 in assay medium, and 10 μL/well was transferred to the plate. Following the compound addition the plate was incubated at 37° C. and 5% CO2 for 22 h. After 22 h, viability was assessed with the addition of 20 μL of Cell Titer-Glo 2.0 (Promega, Catalog #G9243). The tissue culture plate was shaken on an orbital shaker at 300 RPM for 15 minutes at rt in the dark. Luminescence was measured using a PerkinElmer Envision™ plate reader. IC50 values were calculated using a four-parameter logistic curve fit using Genedata Screener software. Results are shown below in Table 3, where the average value across multiple runs is given.

With `N#Cc1ccc(OCC23CC(C(=O)N4N=CCC4c4cc(F)c(Br)c(F)c4)(C2)C3)nc1` (stereo not drawn) [Example 275, 6-((3-(5-(4-bromo-3,5-difluorophenyl)-4,5-dihydro-1H-pyrazole-1-carbonyl)-bicyclo[1.1.1]pentan-1-yl)-methoxy)nicotinonitrile] the IC50 (Homo sapiens, U-937, 22 h) was 73 nM.

With `N#Cc1ccc(OCC23CC(C(=O)N4N=CCC4c4cc(F)cc(F)c4)(C2)C3)cn1` (stereo not drawn) [Example 224, 5-((3-(5-(3,5-difluorophenyl)-4,5-dihydro-1H-pyrazole-1-carbonyl)bicyclo[1.1.1]pentan-1-yl)methoxy)picolinonitrile] the IC50 (Homo sapiens, U-937, 22 h) was 51 nM.

`Cc1ccccc1C1CC=NN1C(=O)C12CC(COc3ccc(C#N)cn3)(C1)C2` (stereo not drawn) [Example 314, 6-((3-(5-(o-tolyl)-4,5-dihydro-1H-pyrazole-1-carbonyl)-bicyclo[1.1.1]pentan-1-yl)-methoxy)nicotinonitrile] showed an IC50 (Homo sapiens, U-937, 22 h) of 475 nM.

`N#Cc1cnc(OCC23CC(C(=O)N4[C@@H]5C[C@@H]5C[C@H]4c4cc(F)cc(F)c4)(C2)C3)cn1` [Example 209, 5-((3-((1R,3S,5R)-3-(3,5-difluorophenyl)-2-azabicyclo[3.1.0]hexane-2-carbonyl)bicyclo[1.1.1]pentan-1-yl)methoxy)pyrazine-2-carbonitrile] gave an IC50 (Homo sapiens, U-937, 22 h) of 362 nM.

`CN(C(=O)C12CC(Cn3ncc4cc(C#N)ccc43)(C1)C2)c1ccccc1Cl` [Example 299, N-(2-chlorophenyl)-3-((5-cyano-1H-indazol-1-yl)-methyl)-N-methylbicyclo-[1.1.1]pentane-1-carboxamide] was tested, and the IC50 (Homo sapiens, U-937, 22 h) was 7010 nM.

In the case of `Cc1ccc(C2CC=NN2C(=O)C23CC(COc4ccc(C#N)cn4)(C2)C3)cc1` (stereo not drawn) [Example 273, 6-((3-(5-(p-tolyl)-4,5-dihydro-1H-pyrazole-1-carbonyl)-bicyclo[1.1.1]pentan-1-yl)-methoxy)nicotinonitrile], the IC50 (Homo sapiens, U-937, 22 h) is reported as 30 nM.

For `N#Cc1nc(C2CC2)n(CC23CC(C(=O)N4N=CCC4c4cc(F)cc(F)c4)(C2)C3)n1` (stereo not drawn) [Example 221, 5-cyclopropyl-1-((3-(5-(3,5-difluorophenyl)-4,5-dihydro-1H-pyrazole-1-carbonyl)-bicyclo[1.1.1]pentan-1-yl)-methyl)-1H-1,2,4-triazole-3-carbonitrile], the IC50 (Homo sapiens, U-937, 22 h) was 992 nM.

`Cc1cc(F)c(C2CC=NN2C(=O)C23CC(COc4cnc(-c5cnn(C)c5)cn4)(C2)C3)cc1F` (stereo not drawn) [Example 345, (5-(2,5-difluoro-4-methylphenyl)-4,5-dihydro-1H-pyrazol-1-yl)(3-(((5-(1-methyl-1H-pyrazol-4-yl)pyrazin-2-yl)oxy)methyl)bicyclo[1.1.1]pentan-1-yl)methanone] was tested, and the IC50 (Homo sapiens, U-937, 22 h) was 61 nM.

Work on `N#Cc1ccc2c(cnn2CC23CC(C(=O)N4N=CCC4c4cc(F)c(C5CC5)c(F)c4)(C2)C3)c1` (stereo not drawn) [Example 340, 1-((3-(5-(4-cyclopropyl-3,5-difluorophenyl)-4,5-dihydro-1H-pyrazole-1-carbonyl)-bicyclo[1.1.1]pentan-1-yl)-methyl)-1H-indazole-5-carbonitrile] yielded an IC50 (Homo sapiens, U-937, 22 h) of 54 nM.

In the case of `Cc1ccc(C2CC=NN2C(=O)C23CC(COc4ccc(C#N)cn4)(C2)C3)cc1F` (stereo not drawn) [Example 272, 6-((3-(5-(3-fluoro-4-methyl-phenyl)-4,5-dihydro-1H-pyrazole-1-carbonyl)bicyclo-[1.1.1]pentan-1-yl)-methoxy)nicotinonitrile], the IC50 (Homo sapiens, U-937, 22 h) is reported as 24 nM.

`N#Cc1ccc2c(cnn2CC23CC(C(=O)N4N=CCC4c4ccc(F)cc4F)(C2)C3)c1` (stereo not drawn) [Example 240, 1-((3-(5-(2,4-difluorophenyl)-4,5-dihydro-1H-pyrazole-1-carbonyl)bicyclo[1.1.1]pentan-1-yl)methyl)-1H-indazole-5-carbonitrile] was tested, and the IC50 (Homo sapiens, U-937, 22 h) was 13 nM.

`C[C@@H](c1ccccc1F)N(C)C(=O)C12CC(COc3cnc(C#N)cn3)(C1)C2` [Example 295, (S)-3-(((5-cyanopyrazin-2-yl)oxy)methyl)-N-(1-(2-fluoro-phenyl)ethyl)-N-methyl-bicyclo[1.1.1]pentane-1-carboxamide] gave an IC50 (Homo sapiens, U-937, 22 h) of 5680 nM.

For `N#Cc1ccc(OCC23CC(C(=O)N4N=CCC4c4ccccc4)(C2)C3)nc1` (stereo not drawn) [Example 276, 6-((3-(5-phenyl-4,5-dihydro-1H-pyrazole-1-carbonyl)-bicyclo[1.1.1]pentan-1-yl)-methoxy)nicotinonitrile], the IC50 (Homo sapiens, U-937, 22 h) was 76 nM.

With `N#Cc1ccc(OCC23CC(C(=O)N4CC(F)CC4c4cccc(F)c4)(C2)C3)nc1` (stereo not drawn) [Example 288, 6-((3-(4-fluoro-2-(3-fluoro-phenyl)pyrrolidine-1-carbonyl)bicyclo[1.1.1]pentan-1-yl)methoxy)nicotinonitrile] the IC50 (Homo sapiens, U-937, 22 h) was 276 nM.

Compound `N#Cc1cnc(OCC23CC(C(=O)N4N=CCC4c4cncc(F)c4)(C2)C3)cn1` (stereo not drawn) [Example 277, 5-((3-(5-(5-fluoropyridin-3-yl)-4,5-dihydro-1H-pyrazole-1-carbonyl)bicyclo[1.1.1]-pentan-1-yl)methoxy)pyrazine-2-carbonitrile] has an IC50 (Homo sapiens, U-937, 22 h) of 81 nM.

`Cc1nc(CC#N)nn1CC12CC(C(=O)N3N=CCC3c3cc(F)cc(F)c3)(C1)C2` (stereo not drawn) [Example 223, 2-(1-((3-(5-(3,5-difluoro-phenyl)-4,5-dihydro-1H-pyrazole-1-carbonyl)bicyclo-[1.1.1]pentan-1-yl)methyl)-5-methyl-1H-1,2,4-triazol-3-yl)acetonitrile] showed an IC50 (Homo sapiens, U-937, 22 h) of 9740 nM.

Compound `N#Cc1ccc(OCC23CC(C(=O)N4N=CCC4c4cc(F)c(CO)c(F)c4)(C2)C3)nc1` (stereo not drawn) [Example 342, 6-((3-(5-(3,5-difluoro-4-(hydroxymethyl)phenyl)-4,5-dihydro-1H-pyrazole-1-carbonyl)bicyclo[1.1.1]pentan-1-yl)methoxy)nicotinonitrile] has an IC50 (Homo sapiens, U-937, 22 h) of 380 nM.

For `N#Cc1cnc(OCC23CC(C(=O)N4N=CCC4c4cccc(F)c4F)(C2)C3)cn1` (stereo not drawn) [Example 306, 5-((3-(5-(2,3-difluorophenyl)-4,5-dihydro-1H-pyrazole-1-carbonyl)bicyclo[1.1.1]pentan-1-yl)methoxy)pyrazine-2-carbonitrile], the IC50 (Homo sapiens, U-937, 22 h) was 6.6 nM.

`Cn1cc(-c2ccc(OCC34CC(C(=O)N5N=CCC5c5cc(F)cc(F)c5)(C3)C4)c(Cl)c2)cn1` (stereo not drawn) [Example 341, (3-((2-chloro-4-(1-methyl-1H-pyrazol-4-yl)phenoxy)methyl)-bicyclo[1.1.1]pentan-1-yl)(5-(3,5-difluorophenyl)-4,5-dihydro-1H-pyrazol-1-yl)-methanone] showed an IC50 (Homo sapiens, U-937, 22 h) of 23 nM.

`COc1ccc(C(O)C23CC(C(=O)N4N=CCC4c4cc(F)cc(F)c4)(C2)C3)cc1` (stereo not drawn) [Example 231, (5-(3,5-difluorophenyl)-4,5-dihydro-1H-pyrazol-1-yl)(3-(hydroxy(4-methoxyphenyl)-methyl)bicyclo[1.1.1]pentan-1-yl)methanone] showed an IC50 (Homo sapiens, U-937, 22 h) of 3040 nM.

For `N#Cc1ccc2c(cnn2CC23CC(C(=O)N4N=CCC4c4cccc(F)c4F)(C2)C3)c1` (stereo not drawn) [Example 237, 1-((3-(5-(2,3-difluoropheny1)-4,5-dihydro-1H-pyrazole-1-carbonyl)bicyclo[1.1.1]pentan-1-yl)methyl)-1H-indazole-5-carbonitrile], the IC50 (Homo sapiens, U-937, 22 h) was 7.8 nM.

`N#Cc1cnc(OCC23CC(C(=O)N4N=CCC4c4ccc(C(F)(F)F)cc4)(C2)C3)cn1` (stereo not drawn) [Example 312, 5-((3-(5-(4-(trifluoromethyl)-phenyl)-4,5-dihydro-1H-pyrazole-1-carbonyl)bicyclo-[1.1.1]pentan-1-yl)methoxy)-pyrazine-2-carbonitrile] was tested, and the IC50 (Homo sapiens, U-937, 22 h) was 62 nM.

`N#Cc1cnc(NCC23CC(C(=O)N4N=CCC4c4cc(F)cc(F)c4)(C2)C3)cn1` (stereo not drawn) [Example 205, 5-(((3-(5-(3,5-Difluorophenyl)-4,5-dihydro-1H-pyrazole-1-carbonyl)bicyclo[1.1.1]pentan-1-yl)methyl)amino)pyrazine-2-carbonitrile] gave an IC50 (Homo sapiens, U-937, 22 h) of 436 nM.

For `N#Cc1ccc(OCC23CC(C(=O)N4N=CCC4c4ncc(F)cc4F)(C2)C3)nc1` (stereo not drawn) [Example 291, 6-((3-(5-(3,5-difluoropyridin-2-yl)-4,5-dihydro-1H-pyrazole-1-carbonyl)bicyclo-[1.1.1]pentan-1-yl)methoxy)-nicotinonitrile], the IC50 (Homo sapiens, U-937, 22 h) was 620 nM.

`Cc1cccc(C2CC=NN2C(=O)C23CC(Cn4ncc5cc(C#N)ccc54)(C2)C3)c1` (stereo not drawn) [Example 243, 1-((3-(5-(m-tolyl)-4,5-dihydro-1H-pyrazole-1-carbonyl)-bicyclo[1.1.1]pentan-1-yl)-methyl)-1H-indazole-5-carbonitrile] gave an IC50 (Homo sapiens, U-937, 22 h) of 31 nM.

For `O=C(N1N=CCC1c1cc(F)cc(F)c1)C12CC(Cn3ncc4ncccc43)(C1)C2` (stereo not drawn) [Example 148, (3-((1H-pyrazolo[4,3-b]-pyridin-1-yl)methyl)bicyclo-[1.1.1]pentan-1-yl)(5-(3,5-difluorophenyl)-4,5-dihydro-1H-pyrazol-1-yl)methanone], the IC50 (22 h) was 912 nM.

`N#Cc1ccc2c(cnn2CC23CC(C(=O)N4N=CCC4c4ncc5ccccn45)(C2)C3)c1` (stereo not drawn) [Example 247, 1-((3-(5-(imidazo[1,5-a]-pyridin-3-yl)-4,5-dihydro-1H-pyrazole-1-carbonyl)bicyclo[1.1.1]pentan-1-yl)methyl)-1H-indazole-5-carbonitrile] gave an IC50 (Homo sapiens, U-937, 22 h) of 81 nM.

Reference: patent US20250214942A1, “INHIBITORS OF RECEPTOR INTERACTING PROTEIN KINASE I FOR THE TREATMENT OF DISEASE” (Board of Regents, The University of Texas System, priority 2019, published 2025)
